Results taken from patent US12589103B2, “Antimicrobial and antiviral effects of C2-C7 alkyl boronic acids” (CORNELL UNIVERSITY, priority 2019, dated 2026).
“Also recorded” adds a separate entry of the source.

Columns and labels:
[1] = tested on: Klebsiella pneumonia (13Dk); experiment: Growth in M9 media; conditions: EBA 10-40 mM
[2] = tested on: enteric pathogens (E. coli, Salmonella, Listeria monocytogenes, Klebsiella); experiment: Bacterial growth panel, OD600 growth-curve AUC ratio (heat map); assay type: cell-based
[3] = tested on: diarrheagenic E. coli and APEC; experiment: Growth of diarrheagenic and APEC E. coli in LB media; assay type: cell-based; conditions: 30 mM
Protocol: (§1) The control sample contained 40 mM NaCl.
Diarrheagenic E. coli pathogroups differ by their preferential host colonization sites, virulence mechanisms, and clinical symptoms.

Feline Lung cells = experiment: Cytotoxicity in FIPV infected Feline Lung cells
[4] = tested on: Gram Positive aerobes and probiotic species (Lactobacillus, Bifidobacteria); experiment: Bacterial growth panel, impact on non-target species (selectivity); assay type: cell-based
[5] = tested on: AIEC E. coli from dogs (MDR and non-MDR strains); experiment: Growth of MDR and non-MDR E. coli associated with Granulomatous colitis in dogs; assay type: cell-based; conditions: 40 mM, LB broth, 48 hrs
Protocol: The ability of C1-C3 alkyl boronic acids and BA to impact the growth of MDR E. coli isolated from people and dogs was evaluated using a temperature controlled 96-well multiplate incubator at 37° C. over 48 hrs. Growth in media (LB broth) with and without ABA C2-6 (40 mM) was monitored by readings at OD600 with the AUC of the growth curve calculated.
Non-MDR strains KD1, KD2, and KD3 were also evaluated.

Salmonella [6] = experiment: Adhesion and invasion of colonic epithelial cells by Salmonella; assay type: cell-based
Salmonella [7] = experiment: Soft agar motility assay, Salmonella; assay type: cell-based; conditions: % motility of the control
Protocol: The ability of ABA C1-3 and BA to impact the motility of E. coli and Salmonella was evaluated using sloppy agar treated with and without BA and C1-C3 alkyl boronic acids. Motility is strongly linked to the virulence phenotype of these bacterial strains. E. coli was grown overnight at 37° C. in LB broth. Soft agar plates (1% tryptone, 0.5% NaCl, 0.25% agar) were prepared the day before the assay was carried out. Sterile NaCl (control), boric or boronic acid stock solution was added into the agar right before pouring the plates. The overnight cultures of E. coli were transferred (3 μl) on to the center of each plate, followed by incubation of the plates at 37° C. for 10 h. E. coli motility was quantified by measuring the diameter of the circular swarming area formed by the growing motile bacteria.

[8] = tested on: AIEC E. coli (541-1, LF82) virulence genes; experiment: Virulence gene expression of AIEC (qRT-PCR); assay type: cell-based; conditions: 30 mM
Protocol: Total RNA was extracted using the Qiagen RNAProtect-RNeasy Kit per manufacturer's protocol. Total RNA was treated with TURBO DNA-Free Kit (Ambion), followed by a two-step qRT-PCR analysis, using Qiagen's QuantiTect Reverse Transcription Kit and QuantiNova SYBR Green PCR Kit. Each qPCR reaction contained 1 μl of cDNA, 0.7 μl of each forward and reverse primers (10 μM), 5 μL of 2× SYBR Green Master Mix, 1 μl of QN ROX Reference Dye and […] of nuclease-free water to make the total volume of 10 μl. The reaction was run with ABI7000 (Applied Biosystems). […] The relative change of a targeted gene expression was calculated by using the equation RQ=2^−ΔΔCT.

[9] = tested on: AIEC in murine macrophage J774A.1 cells; experiment: Uptake and survival of AIEC in J774A.1 macrophages; assay type: cell-based, E. coli
[10] = 8-week toxicity study in mice, drinking water; assay type: in vivo, C57/B18 mice
Protocol: The toxicity of boric and ethylboronic acids were examined with C57/B18 mice. At concentrations of 0, 10, 20, and 40 mM, the two chemicals were given to each group (6 mice) in drinking water. The body weight of each mouse was recorded weekly for 8 weeks, and fecal samples were also collected weekly for 16s sequencing. All animals were sacrificed at the end of 8th week. The length of whole intestine and ileum of each mouse was measured, and sections of the intestine (i. e. small intestine, ileum, cecum, and large intestine) were taken for histopathological and FISH analysis. Fecal samples were used for 16s and lipocalin analysis.
For lipocalin analysis, mouse fecal pellets were collected and frozen at −80 C during toxicity study. To determine lipocalin activity fecal pellets were diluted in microfuge tubes 1/30 with 0.1% Tween20/PBS and vortexed for 20 min at maximum speed. Undissolved particles were removed by centrifuging at 12,000 rpm for 10 min at 4 C. Supernatant was removed and placed into a clean microfuge tube. Lipocalin activity was determined using Mouse Lipocalin-2/NGAL DuoSet ELISA Kit (R&D Systems, DY1857) per manufacturer's instructions.

Listeria monocytogenes = experiment: Bacterial growth panel, Listeria; assay type: cell-based
Protocol: as §1
Growth of bacteria with or without addition of C2-C8 C10, and C12 alkyl boronic acids, BA, or FMPBA was monitored by readings at OD600. […] The area under the curve (“AUC”) of the growth curve was calculated and the results were expressed as AUC+test compound:AUC−test compound.

[11] = tested on: probiotic Lactobacillus spp; experiment: Growth of probiotic Lactobacillus strains; conditions: three Lactobacillus strains
[12] = tested on: typhoid toxin B subunit (CdtB); assay type: cell-based, Salmonella typhi
Salmonella [13] = experiment: Growth of five Salmonella strains; assay type: cell-based
Protocol: as §1

[14] = DSS induced colitis in mice; assay type: in vivo, C57BL mice; conditions: 40 mM in drinking water after DSS (3%)
Protocol: On the basis of favorable in vivo toxicity tests, the ability of BA and EBA to reduce the severity of inflammation in murine models of microbially driven IBD was tested. The effect of BA and EBA (40 mM) on intestinal inflammation was evaluated in mice with dextran sodium sulfate (“DSS”) induced colitis. The DSS model has a complex etiopathogenesis that involves host-immune and inflammatory responses and the enteric microbiome BA To test their protecting ability to the gastrointestinal tract, boric and ethylboronic acid were given to C57BL mice at 40 mM concentration respectively in drinking water after DSS (3%) treatment. Body weight and fecal samples were taken before and after 6-day treatment. At the 6th day, all mice were euthanized for gross necropsy and histopathology. Intestinal sections were collected and embedded for pathological and FISH analysis. Fecal samples were used for 16s and lipocalin analysis.

Which “inhibition of growth of Klebsiella pneumonia 13Dk” value [1] does the source give for `CCB(O)O` [EBA, ethyl boronic acid] here?
The value was “effective”.

What about the “antibacterial activity / potency against enteric pathogens (growth, AUC+test compound:AUC−test compound)” value ([2]; 40 mM (BA, EBA, PBA), 20 mM (BBA), 10 mM (PeBA), 5 mM (HBA, SBA), 1 mM (OBA), 0.5 mM (DBA), 2 mM (DoDBA), 20 mM (FMPBA), 24-48 hrs) of the same compound?
The value was “higher potency against enteropathogens”.

What about the “selectivity for Gram Negative enteropathogens” value ([2]; growth panel) of the same compound?
Its value is “highest”.

What about the “inhibition of growth of diarrheagenic and APEC E. coli” value [3] of the same compound?
The value was “have activity versus the diarrheagenic E. coli and APEC that varies by pathogroup; also recorded: more effective in inhibiting bacterial growth than BA overall”.

What about the “cytotoxicity in antiviral assay” value (Feline Lung cells) of the same compound?
The value was “Cytotoxicity was not observed at antiviral doses”.

And the “selectivity against Probiotic spp” value ([4]; compared with BA)?
The value was “more selective than BA”.

And the “selectivity versus Gram Positive aerobes” value ([4]; compared with BA)?
The value was “more selective than BA”.

What about the “selectivity: impact on Gram Positive aerobes and probiotic species” value ([4]; same concentrations as growth panel) of the same compound?
The value was “less impact on probiotic Lactobacillus, Bacillus, and Gram Positive aerobes; also recorded: more selective than DoDBA; also recorded: more selective than C3-C7 alkyl boronic acids”.

And the “growth inhibition of canine Granulomatous colitis associated AIEC, MDR and non-MDR” value [5]?
The value was “more effective than BA over a wider range of AIEC, including MDR and non-MDR strains”.

And the “suppression of adhesion and invasion of Salmonella” value (Salmonella [6])?
Its value is 40-50%.

What about the “motility of Salmonella” value (Salmonella [7]) of the same compound?
The value was “highly effective at blocking motility of Salmonella”.

And the “pduC expression in 541-1” value [8]?
The value was “Upregulation”.

And the “virulence gene expression of AIEC” value ([8]; mid log phase, compared with BA)?
The value was “inhibited virulence gene expression”.

What about the “survival of AIEC in J774A.1 macrophages” value ([9]; 30 mM during infection, 24 h post infection) of the same compound?
The value was “inhibited the survival”.

And the “uptake of AIEC by J774A.1 macrophages” value ([9]; 30 mM, 1 h)?
Its value is “inhibited the uptake”.

And the “adverse effects in mice” value ([10]; 40 mM)?
The value was “safely administered to mice without adverse effects”.

What about the “fecal 16S profiles” value ([10]; mouse, in vivo) of the same compound?
Its value is “not significantly different from control mice”.

And the “selectivity of activity against Listeria monocytogenes” value (Listeria monocytogenes)?
Its value is “selectivity apparent”.

And the “growth of probiotic Lactobacillus spp” value [11]?
Its value is “do not suppress growth”.

What about the “typhoid toxin (CdtB) production” value [12] of the same compound?
Its value is “inhibition of toxin production (CdtB)”.

What about the “inhibition of growth of Salmonella serovars” value (Salmonella [13]) of the same compound?
Its value is “inhibit the growth of multiple serovars of Salmonella more effectively than BA”.

And the “colon length in DSS colitis versus control mice” value [14]?
Its value is “not significantly different”.

What about the “fecal lipocalin levels in DSS colitis versus control mice” value [14] of the same compound?
Its value is “not significantly different”.

What about the “intestinal bleeding in DSS colitis” value [14] of the same compound?
The value was “absent”.
